Experimental data reported in US6127382A, “Amines substituted with a tetrahydroquinolinyl group an aryl or heteroaryl group and an alkyl group, having retinoid-like biological activity” (Allergan Sales, Inc., priority 1999, dated 2000).

Columns and labels:
RXRα [1] = target: T1, RXRα (Homo sapiens, UniProt P19793); assay: ligand binding assay, RXRα; conditions: read-out: RXR Bind Ki α
T1 construct: expressed in transfected cells
T1 sequence (P19793 1-462): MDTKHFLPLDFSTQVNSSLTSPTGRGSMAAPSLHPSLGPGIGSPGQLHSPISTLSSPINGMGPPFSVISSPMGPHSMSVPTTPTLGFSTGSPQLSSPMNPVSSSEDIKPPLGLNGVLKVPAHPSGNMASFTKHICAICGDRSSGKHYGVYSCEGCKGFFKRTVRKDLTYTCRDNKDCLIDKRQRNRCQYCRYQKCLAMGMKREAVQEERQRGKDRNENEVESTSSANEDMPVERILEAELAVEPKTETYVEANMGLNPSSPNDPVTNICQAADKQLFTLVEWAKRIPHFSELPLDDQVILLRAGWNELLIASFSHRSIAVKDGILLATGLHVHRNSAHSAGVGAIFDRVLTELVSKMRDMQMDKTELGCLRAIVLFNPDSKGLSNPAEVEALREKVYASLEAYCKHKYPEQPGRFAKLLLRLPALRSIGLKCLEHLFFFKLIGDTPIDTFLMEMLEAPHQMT
Description: (§1) Other assays described below, measure the ability of the compounds of the present invention to bind to, and/or activate various retinoid receptor subtypes. When in these assays a compound binds to a given receptor subtype and activates the transcription of a reporter gene through that subtype, then the compound is considered an agonist of that receptor subtype. […] In the below described assays the ability of the compounds to bind to RARα, RARβ, RARγ, RXRα, RXRβ and RXRγ receptors, and the ability or inability of the compounds to activate transcription of a reporter gene through these receptor subtypes can be tested. […] However, some of the compounds of the invention may behave as retinoid antagonists or partial antagonists and/or as inverse agonists. Because of the complex distribution of the different retinoid receptors in various organs of the mammalian body partial agonists and partial antagonists and compounds which have the characteristics of both may lend themselves to particularly useful therapeutic applications and may avoid serious side effects of conventional retinoid drugs.
(§2) A holoreceptor transactivation assay and a ligand binding assay which measure the antagonist/agonist like activity of the compounds of the invention, or their ability to bind to the several retinoid receptor subtypes, respectively, are described in published PCT Application No. WO WO93/11755 (particularly on pages 30-33 and 37-41) published on Jun. 24, 1993, the specification of which is also incorporated herein by reference. A detailed experimental procedure for holoreceptor transactivations has been described by Heyman et al. Cell 68, 397-406, (1992); Allegretto et al. J. Biol. Chem. 268, 26625-26633, and Mangelsdorf et al. The Retinoids: Biology, Chemistry and Medicine, pp 319-349, Raven Press Ltd., New York, which are expressly incorporated herein by reference. The results obtained in this assay are expressed in EC50 numbers, as they are also in the chimeric receptor transactivation assay. The results of ligand binding assay are expressed in Kd numbers. (See Cheng et al. Biochemical Pharmacology Vol. 22 pp 3099-3108, expressly incorporated herein by reference.)
(§3) Table 1 discloses the activity of certain exemplary compounds of the invention in the above-described chimeric receptor transactivation assay, holoreceptor transactivation assay and a ligand binding assays. Particularly, the transactivation data pertaining to RAR receptors were obtained in the chimeric assay, and the data pertaining to transactivation of RXR receptors were obtained in the holoreceptor transactivation assay.

RXRα [2] = target: T1, RXRα; assay: holoreceptor transactivation assay, RXRα; assay type: cell-based; conditions: for EC50: holoreceptor assay, read-out: RXR Trans EC50 α; for Emax: relative to 10^-6 M cyclopropyl penta-2,4-dienoic acid reference, read-out: % efficacy, RXRα transactivation
Description: as §1, §2, §3

RXRβ = target: T2, RXRβ (Mus musculus, UniProt P28704); assay: holoreceptor transactivation assay, RXRβ; assay type: cell-based; conditions: for EC50: holoreceptor assay, read-out: RXR Trans EC50 β; for Emax: relative to 10^-6 M cyclopropyl penta-2,4-dienoic acid reference, read-out: % efficacy, RXRβ transactivation
T2 construct: expressed in transfected cells
T2 sequence (P28704 1-520): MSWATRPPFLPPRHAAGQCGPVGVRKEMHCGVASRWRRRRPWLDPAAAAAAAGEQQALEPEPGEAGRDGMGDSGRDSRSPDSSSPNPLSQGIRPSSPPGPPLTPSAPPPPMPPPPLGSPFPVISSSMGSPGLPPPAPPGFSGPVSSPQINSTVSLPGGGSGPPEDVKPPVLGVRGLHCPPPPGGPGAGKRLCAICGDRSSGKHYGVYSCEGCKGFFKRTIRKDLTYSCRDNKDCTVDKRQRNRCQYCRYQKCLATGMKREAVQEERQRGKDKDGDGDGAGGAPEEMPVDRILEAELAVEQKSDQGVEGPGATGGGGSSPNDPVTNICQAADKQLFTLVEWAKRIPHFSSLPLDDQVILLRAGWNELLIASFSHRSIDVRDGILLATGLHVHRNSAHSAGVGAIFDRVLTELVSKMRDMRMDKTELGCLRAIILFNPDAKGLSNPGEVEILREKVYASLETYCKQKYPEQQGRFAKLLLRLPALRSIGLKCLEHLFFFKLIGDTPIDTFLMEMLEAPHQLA
Description: as §1, §2, §3

RXRγ = target: T3, RXRγ (Mus musculus, UniProt P28705); assay: holoreceptor transactivation assay, RXRγ; assay type: cell-based; conditions: for EC50: holoreceptor assay, read-out: RXR Trans EC50 γ; for Emax: relative to 10^-6 M cyclopropyl penta-2,4-dienoic acid reference, read-out: % efficacy, RXRγ transactivation
T3 construct: expressed in transfected cells
T3 sequence (P28705 1-463): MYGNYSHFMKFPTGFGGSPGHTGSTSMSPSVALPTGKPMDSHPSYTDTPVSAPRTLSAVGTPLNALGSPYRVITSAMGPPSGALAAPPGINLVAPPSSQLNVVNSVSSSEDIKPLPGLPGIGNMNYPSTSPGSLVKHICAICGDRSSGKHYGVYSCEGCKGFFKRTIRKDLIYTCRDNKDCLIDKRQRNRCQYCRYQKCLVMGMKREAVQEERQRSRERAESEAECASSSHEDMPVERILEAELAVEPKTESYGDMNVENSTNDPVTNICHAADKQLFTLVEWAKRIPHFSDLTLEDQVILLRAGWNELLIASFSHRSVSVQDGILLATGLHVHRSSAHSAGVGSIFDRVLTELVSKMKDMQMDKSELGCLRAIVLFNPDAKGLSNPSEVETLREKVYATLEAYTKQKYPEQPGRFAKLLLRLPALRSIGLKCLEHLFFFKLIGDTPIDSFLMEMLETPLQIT
Description: as §1, §2, §3

| SMILES | Ki (RXRα [1]) [nM] | EC50 (RXRα [2]) [nM] | Emax (RXRα [2]) [%] | EC50 (RXRβ) [nM] | Emax (RXRβ) [%] | EC50 (RXRγ) [nM] | Emax (RXRγ) [%] |
| --- | --- | --- | --- | --- | --- | --- | --- |
| CCN(c1ccc(C(=O)O)cc1)c1ccc2c(c1)C(C)(C)CC(=O)N2C(C)C [Compound 6, 4-[(1-Isopropyl-4,4-dimethyl-2-oxo-1,2,3,4-tetrahydroquinolin-6-yl)ethylamino]benzoic Acid] | 9000 | 1000 | 50 | > 1000 | 40 |  |  |
| CC(C)N1CCC(C)(C)c2cc(N(C)c3ccc(C(=O)O)cc3)ccc21 [Compound 10, 4-[(1-Isopropyl-4,4-dimethyl-1,2,3,4-tetrahydroquinolin-6-yl)methylamino]benzoic Acid] | > 1000 | 1000 | 70 |  |  | 1000 | 50 |
| CCN(c1ccc(C(=O)O)cc1)c1ccc2c(c1)C(C)(C)CCN2C(C)C [Compound 12, 4-[(1-Isopropyl-4,4-dimethyl-1,2,3,4-tetrahydroquinolin-6-yl)ethylamino]benzoic acid] | 136 | 78 | 134 | 1000 | 75 | 148 | 150 |
| CC(C)CCN(c1ccc(C(=O)O)cc1)c1ccc2c(c1)C(C)(C)CCN2C(C)C [Compound 14, 4-[(1-Isopropyl-4,4-dimethyl-1,2,3,4-tetrahydroquinolin-6-yl)(3-methylbutyl)amino]-benzoic Acid] | 904 |  |  |  |  |  |  |
| Cc1cc2c(cc1N(C)c1ccc(C(=O)O)cc1)C(C)(C)CCN2C(C)C [Compound 22, 4-[(1-Isopropyl-4,4,7-trimethyl-1,2,3,4-tetrahydroquinolin-6-yl)methylamino]benzoic acid] | 1200 | 1000 | 80 | > 1000 | 15 | 1000 | 100 |
| CCN(c1ccc(C(=O)O)cc1)c1cc2c(cc1C)N(C(C)C)CCC2(C)C [Compound 24, 4-[(1-Isopropyl-4,4,7-trimethyl-1,2,3,4-tetrahydroquinolin-6-yl)ethylamino]benzoic acid] | 448 | 36 | 90 | 1000 | 70 | 69 | 117 |
| Cc1cc2c(cc1N(CC1CC1)c1ccc(C(=O)O)cc1)C(C)(C)CCN2C(C)C [Compound 26, 4-[(1-Isopropyl-4,4,7-trimethyl-1,2,3,4-tetrahydro-quinolin-6-yl)(cyclopropylmethyl)amino]benzoic acid] | 413 | > 1000 | 25 | > 1000 | 10 | 1000 | 75 |
| CCN(c1ccc(C(=O)O)cc1)c1ccc2c(c1)N(C(C)C)CCC2(C)C [Compound 38, 4-[(1-Isopropyl-4,4-dimethyl-1,2,3,4-tetrahydroquinolin-7-yl)ethylamino]benzoic acid] | 10 | 0.6 | 114 | 7 | 102 | 1 | 109 |
| CC(C)CN(c1ccc(C(=O)O)cc1)c1ccc2c(c1)N(C(C)C)CCC2(C)C [Compound 39, 4-[(1-Isopropyl-4,4-dimethyl-1 2,3,4-tetrahydroquinolin-7-yl)isobutylamino]benzoic acid] | 49 | 1 | 121 | 10 | 97 | 2 | 112 |
| CC(C)N1CCC(C)(C)c2ccc(N(CC3CC3)c3ccc(C(=O)O)cc3)cc21 [Compound 40, 4-[(1-Isolpropyl-4,4-dimethyl-1,2,3,4-tetrahydroquinolin-7-yl)(cylopropylmethyl)amino]benzoic acid] | 9 | 0.1 | 110 | 3 | 93 | 0.2 | 105 |
| Cc1cc2c(cc1Nc1ccc(C(=O)O)cc1)N(C(C)C)CCC2(C)C [Compound 50, 4-(1-Isopropyl-4,4,6-trimethyl-1,2,3,4-tetrahydro-quinolin-7-ylamino)-benzoic acid] | 327 | 4 | 103 | 27 | 104 | 4 | 102 |
| Cc1cc2c(cc1N(C)c1ccc(C(=O)O)cc1)N(C(C)C)CCC2(C)C [Compound 51, 4-[(1-Isopropyl-4,4,6-trimethyl-1,2,3,4-tetrahydro-quinolin-7-yl)-methyl-amino]-benzoic acid] | 221 | 32 | 92 | 374 | 119 | 47 | 104 |
| CCN(c1ccc(C(=O)O)cc1)c1cc2c(cc1C)C(C)(C)CCN2C(C)C [Compound 52, 4-[-(1-Isopropyl-4,4,6-trimethyl-1,2,3,4-tetrahydro-quinolin-7-yl)ethylamino]-benzoic acid] | 28 | 0.2 | 94 | 2 | 96 | 0.5 | 96 |
| CCCN(c1ccc(C(=O)O)cc1)c1cc2c(cc1C)C(C)(C)CCN2C(C)C [Compound 53, 4-[(1-Isopropyl-4,4,6-trimethyl-1,2,3,4-tetrahydro-quinolin-7-yl)-propyl-amino]-benzoic acid] | 44 | 0.2 | 92 | 2 | 93 | 0.3 | 96 |
